Laboratory results taken from patent US20250339419A1, “METHODS OF TREATING OCULAR INFLAMMATORY DISEASES” (priority 2021, published 2025).
Several values for one entry are separate records, joined by “and”; a condition that tells them apart may be missing. Equal entries are not always repeated. Entries after “also recorded” stand apart in the source; their conditions may differ. Where two headings read alike, the source gives them in different places.

Key:
[1] = Phase 1 double-masked multiple-dose plasma PK study of roflumilast topical ophthalmic suspension (0.3%); assay type: in vivo, human; conditions: for plasma profile, fluctuation between peak (Cmax) and trough (pre-dose): Day 8; for accumulation ratios (RAUC0-12): by Day 8, mean (SD)
Method: A pharmacokinetic (PK) study of a roflumilast topical ophthalmic suspension was conducted. Data at Day 1 (Example 15), Day 8 (Example 16), and comparative data (Example 17) is provided.
The study was a Phase 1, double-masked, multiple-dose study conducted in healthy volunteers. The multiple-dose study was conducted over a single dose level where participants were randomly assigned to receive a masked dose of roflumilast topical ophthalmic suspension eye drops (n=14) or vehicle only (n=2) as set forth in Table 7, administered as a single drop in each eye BID (twice daily, every 12 hours) for seven days, followed by a single morning dose on Day 8.
Blood samples were collected at multiple time points on Days 1, 2, 8, and 9. The following nominal blood sampling time points were used for the PK assessment of roflumilast topical ophthalmic suspension and its main active metabolite on days 1 and 8:
Roflumilast topical ophthalmic suspension and roflumilast n-oxide (metabolite) concentrations in plasma were evaluated using Phoenix™ WinNonlin® version and 8.4 (Pharsight Corporation, USA). For both analytes, the upper limit of quantification (ULOQ) was […] and the lower limit of quantification (LLOQ) was […].
Analysis Procedures: Actual collection times were used for PK parameter determinations, calculated with respect to the dose time. Time points preceding Cmax, the first measurable concentration that was BLOQ were set to zero for PK parameter determination. Where the final plasma concentration was BLOQ, the concentration at the preceding time point was deemed to be the last measurable concentration for calculation of λz. AUC parameters were determined by the linear-up, log-down trapezoidal rule. λz was determined by log-linear regression obtained on at least the 3 last quantifiable concentrations (not including Cmax); the default “best fit” method by Phoenix WinNonlin was used for the selection of slopes to determine λz. In addition, every PK profile was scrutinized visually and adjustments made to the slope selection, where necessary. The goodness of fit of the regression was evaluated using the square of the correlation coefficient (adjusted R2) which was required to be at least 0.8 for the λz l value to be considered reliable. Regression-based parameters (AUC0-inf, t1/2) were calculated if the adjusted R2 value of the regression line was greater than or equal to 0.8 and residual area <20%. The time point where the ln-linear λz calculation begins (Lower) and the actual sampling time of the last measurable concentration used to estimate the λz (λz Upper) as well as the R2-adjusted for the ln-linear regression for the calculation of the elimination rate constant were listed.

[2] = design: AUC 0-∞: unit not given beside the values; conditions: Observed PO (Day 1), single 500 μg dose; cited from earlier work
[3] = plasma, Day 8, mean (SD), topical ocular 0.3% BID 7 days + morning dose

In the case of `O=C(Nc1c(Cl)cncc1Cl)c1ccc(OC(F)F)c(OCC2CC2)c1` [Roflumilast, N-(3,5-dichloropyrid-4-yl)-3-cyclopropylmethoxy-4-difluoromethoxybenzamide], the “accumulation from the AM to the PM dose (C12 vs Clast)” value ([1]; Day 1) is reported as about 2 fold, the “plasma profile, fluctuation between peak (Cmax) and trough (pre-dose)” value [1] is reported as “very stable, showing little fluctuation” and the “PTF % (percent peak-to-trough fluctuation)” value ([1]; Day 8, mean (SD)) is reported as 0.893 (0.446) %. The “RAUC0-12 (accumulation ratio)” value ([1]; Day 8, mean (SD)) was 2.63 (1.39), the “plasma concentrations, topical ocular route compared to oral (PO) administration” value ([1]; FIGS. 24-26) was “lower than those of PO-administered roflumilast; also recorded: significantly lower, producing a flatter concentration-time profile without a distinct Cmax peak” and the “AUC0-tau Geometric Mean Ratio (Day 8/Day 1) (90% CI)” value ([1]; Group 1) was 2.37 (1.90-2.94). The “C12 (trough) Difference in LS Means (Day 8 − Day 1) (90% CI)” value ([1]; Group 1) was 0.66 (0.45-0.86), the “C12 (trough) Geometric Mean Ratio (Day 8/Day 1) (90% CI)” value ([1]; Group 1) was 1.93 (1.57-2.37) and the “Cmax Geometric Mean Ratio (Day 8/Day 1) (90% CI)” value ([1]; Group 1) was 1.79 (1.41-2.27). For the same compound, the “C12 (trough) LS Means” value ([1]; Group 1, Day 1, n 14) was −1.44, the “C12 (trough) LS Means” value ([1]; Group 1, Day 8, n 14) was −0.78 and the accumulation ratios (RAUC0-12) [1] was 2.63. It also gave an AUC ([1]; human, plasma, other: topical ophthalmic eye drops, 0.3 % suspension, single drop in each eye BID, Group 1, Day 1, read-out: AUC0-tau Geometric Mean) of 2.91 ng·h/mL, a concentration at 12 h ([1]; human, plasma, other: topical ophthalmic eye drops, 0.3 % suspension, single drop in each eye BID, Group 1, Day 1, read-out: C12 (trough) Geometric Mean) of 0.24 ng/mL and a Cmax ([1]; human, plasma, other: topical ophthalmic eye drops, 0.3 % suspension, single drop in each eye BID, Group 1, Day 1, read-out: Cmax Geometric Mean) of 0.47 ng/mL. The AUC ([1]; human, plasma, other: topical ophthalmic eye drops, 0.3 % suspension, single drop in each eye BID, Group 1, Day 8, read-out: AUC0-tau Geometric Mean) was 6.88 ng·h/mL, the concentration at 12 h ([1]; human, plasma, other: topical ophthalmic eye drops, 0.3 % suspension, single drop in each eye BID, Group 1, Day 8, read-out: C12 (trough) Geometric Mean) was 0.46 ng/mL and the Cmax ([1]; human, plasma, other: topical ophthalmic eye drops, 0.3 % suspension, single drop in each eye BID, Group 1, Day 8, read-out: Cmax Geometric Mean) was 0.85 ng/mL. For the same compound, the concentration at 12 h ([1]; human, plasma, other: topical ophthalmic eye drops, 0.3 % suspension, single drop in each eye BID, plasma, Day 1, mean, 12 hr post-first dose, read-out: C12) was 0.29 ng/mL, the AUC0-t ([1]; human, plasma, other: topical ophthalmic eye drops, 0.3 % suspension, single drop in each eye BID, plasma, Day 1, mean, to 12 hr post-first dose, read-out: AUC0-t) was 3.6 ng·h/mL and the concentration at 24 h ([1]; human, plasma, other: topical ophthalmic eye drops, 0.3 % suspension, single drop in each eye BID, plasma, Day 1, mean, to 24 hr post-first dose, read-out: Clast) was 0.51 ng/mL. The Cmax ([1]; human, plasma, other: topical ophthalmic eye drops, 0.3 % suspension, single drop in each eye BID, plasma, Day 1, mean, 0.3% suspension 1 drop each eye BID, read-out: Cmax) was 0.59 ng/mL, the Tmax ([1]; human, plasma, other: topical ophthalmic eye drops, 0.3 % suspension, single drop in each eye BID, plasma, Day 1, median, read-out: Tmax) was 2 h and the AUC0-t ([1]; human, plasma, other: topical ophthalmic eye drops, 0.3 % suspension, single drop in each eye BID, plasma, Day 8, mean (SD), read-out: AUC0-t) was 12.8 ng·h/mL. For the same compound, the AUC ([1]; human, plasma, other: topical ophthalmic eye drops, 0.3 % suspension, single drop in each eye BID, plasma, Day 8, mean (SD), read-out: AUC0-tau) was 7.6 ng·h/mL, the AUC ([1]; human, plasma, other: topical ophthalmic eye drops, 0.3 % suspension, single drop in each eye BID, plasma, Day 8, mean (SD), read-out: AUC24) was 12.8 ng·h/mL and the concentration at 12 h ([1]; human, plasma, other: topical ophthalmic eye drops, 0.3 % suspension, single drop in each eye BID, plasma, Day 8, mean (SD), read-out: C12 trough) was 0.5 ng/mL. The Tmax ([1]; human, plasma, other: topical ophthalmic eye drops, 0.3 % suspension, single drop in each eye BID, plasma, Day 8, median, read-out: Tmax) was 1 h, the Cmax ([1]; human, plasma, topical or ocular, 0.3 % suspension, single drop in each eye BID, plasma, Day 8, mean (SD), topical ocular 0.3% BID 7 days + morning dose, read-out: Cmax) was 0.94 ng/mL and the Cavg ([1]; plasma, Day 8, mean (SD)) was 0.63 (0.30) ng/mL. The Cmax [1, 3] was 0.94 (0.46) ng/mL, the “AUC 0-∞” value [2] was 37.2 and 32.86 and the “Plasma Cmax” value [2] was 8.3 ng/mL.

In the case of `O=C(Nc1c(Cl)c[n+]([O-])cc1Cl)c1ccc(OC(F)F)c(OCC2CC2)c1` [Roflumilast N-oxide, 3-cyclopropylmethoxy-4-difluoromethoxy-N-(3,5-dichloropyrid-4-yl 1-oxide)benzamide], the mean plasma profile ([1]; Day 1, FIGS. 14-17) is reported as “increased over the 12 hours post-first dose”, the “plasma levels relative to roflumilast” value ([1]; Day 1, FIGS. 16-17) is reported as “consistently higher than roflumilast after 2 hours” and the “plasma profile, fluctuation between peak (Cmax) and trough (pre-dose)” value [1] is reported as “very stable, showing little fluctuation”. The “mean peak plasma profile relative to parent” value ([1]; Day 8, FIGS. 22-23) was “consistently higher than that of the parent”, the “PTF % (percent peak-to-trough fluctuation)” value ([1]; Day 8, mean (SD)) was 0.287 (0.223) % and the “RAUC0-12 (accumulation ratio)” value ([1]; Day 8, mean (SD)) was 9.25 (2.92). It also gave an accumulation ratios (RAUC0-12) [1] of 9.25, a C12 ([1]; plasma, Day 1, mean, 12 hr post-first dose) of 1.37 ng/mL and an AUC0-t ([1]; plasma, Day 1, mean, to 12 hr post-first dose) of 9.38 ng·h/mL. It also gave a Clast ([1]; plasma, Day 1, mean, to 24 hr post-first dose) of 3.49 ng/mL, a Cmax ([1]; plasma, Day 1, mean, 0.3% suspension 1 drop each eye BID) of 1.38 ng/mL and a Tmax ([1]; plasma, Day 1, median) of 11.83 h. For the same compound, the AUC0-t ([1]; plasma, Day 8, mean (SD)) was 156 (79.3) h*ng/mL, the AUC0-tau ([1]; plasma, Day 8, mean (SD)) was 78.4 (39.4) h*ng/mL and the AUC24 ([1]; plasma, Day 8, mean (SD)) was 149 (77.4)** h*ng/mL. For the same compound, the C12 trough ([1]; plasma, Day 8, mean (SD)) was 6.33 (3.35) ng/mL, the Cavg ([1]; plasma, Day 8, mean (SD)) was 6.53 (3.29) ng/mL and the Cmax [1, 3] was 7.93 (3.88) ng/mL. For the same compound, the Tmax ([1]; plasma, Day 8, median) was 1.00 h.
